Consider 15 molecules from patent publication US9233979B2, “Compounds that are ERK inhibitors” (Merck Sharp & Dohme Corp., priority 2012, dated 2016).

The target in the assay is phosphorylated active hERK2 enzyme (Homo sapiens (Human), UniProt P28482). Put plainly: Active Human ERK2 (hERK2) Activity Assay (IMAP-FP). The assay is classed as biochemical. The settings on record: Table 6, 0.5 nM hERK2, 30 μM ATP, 10 point titration, read-out: AERK2 IC50. Put shortly: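 IMAP fluorescence-polarization kinase assay: 0.5 nM activated hERK2 with 900 nM unlabeled plus 80 nM labeled peptide and 30 μM ATP, reacted 60 min. Quenched with IMAP beads in binding buffer with 24 mM NaCl; FP read after 60 min equilibration.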
Chain of phosphorylated active hERK2 enzyme (P28482 whole entry): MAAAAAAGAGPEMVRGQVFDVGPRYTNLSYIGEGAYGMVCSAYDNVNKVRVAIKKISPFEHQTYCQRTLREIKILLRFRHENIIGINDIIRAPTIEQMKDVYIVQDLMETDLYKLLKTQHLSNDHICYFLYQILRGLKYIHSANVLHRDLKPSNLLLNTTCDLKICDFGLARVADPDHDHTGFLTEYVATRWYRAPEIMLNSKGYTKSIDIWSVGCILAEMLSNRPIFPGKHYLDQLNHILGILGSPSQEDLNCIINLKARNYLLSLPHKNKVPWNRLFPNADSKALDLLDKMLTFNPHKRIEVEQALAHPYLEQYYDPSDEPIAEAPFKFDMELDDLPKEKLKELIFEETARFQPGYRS

Take `CCNc1n[nH]c2cc(NC(=O)NCc3c(F)cccc3OC)ncc12` [Example 242, 1-[3-(ethylamino)-1H-pyrazolo[4,3-c]pyridin-6-yl]-3-(2-fluoro-6-methoxybenzyl)-urea]: the IC50 (commonly the concentration needed to halve the response being measured) worked out at 2.4 nM. As for `CCNc1n[nH]c2cc(NC(=O)N[C@H](C)c3cccc(F)c3)ncc12` [Example 243, 1-[3-(ethylamino)-1H-pyrazolo[4,3-c]pyridin-6-yl]-3-[(1R)-1-(3-fluorophenyl)-ethyl]urea], the figure is 1.7 nM. As to `CCNc1n[nH]c2cc(NC(=O)NCc3c(F)cccc3Cl)ncc12` [Example 244, 1-(2-chloro-6-fluorobenzyl)-3-[3-(ethylamino)-1H-pyrazolo[4,3-c]-pyridin-6-yl]urea], the IC50 is 10.8 nM. As for `CCNc1n[nH]c2cc(NC(=O)N[C@H](C)c3ccc(F)c(Cl)c3)ncc12` [Example 245, 1-[(1R)-1-(3-chloro-4-fluorophenyl)ethyl]-3-[3-(ethylamino)-1H-pyrazolo[4,3-c]pyridin-6-yl]urea], the IC50 was determined as 6.7 nM.

As for `CCNc1n[nH]c2cc(NC(=O)N[C@H](C)c3cccc(Cl)c3)ncc12` [Example 246, 1-[(1R)-1-(3-chlorophenyl)ethyl]-3-[3-(ethylamino)-1H-pyrazolo[4,3-c]pyridin-6-yl]urea], the IC50 is 2.4 nM. `CCNc1n[nH]c2cc(NC(=O)N[C@H](CC)c3ccc(Cl)cc3)ncc12` [Example 247, 1-[(1R)-1-(4-chlorophenyl)propyl]-3-[3-(ethylamino)-1H-pyrazolo[4,3-c]-pyridin-6-yl]urea]: the IC50 came to 2.2 nM. As for `CCNc1n[nH]c2cc(NC(=O)N[C@H](C)c3ccc(Cl)c(Cl)c3)ncc12` [Example 248, 1-[(1R)-1-(3,4-dichlorophenyl)ethyl]-3-[3-(ethyl-amino)-1H-pyrazolo[4,3-c]-pyridin-6-yl]urea], the figure is 3.2 nM. As for `CCNc1n[nH]c2cc(NC(=O)N[C@H](C)c3ccc(Cl)cc3)ncc12` [Example 249, 1-[(1R)-1-(4-chlorophenyl)ethyl]-3-[3-(ethylamino)-1H-pyrazolo[4,3-c]pyridin-6-yl]urea], the figure is 12 nM. For `CCNc1n[nH]c2cc(NC(=O)NCc3cccnc3N(C)C)ncc12` [Example 250, 1-{[2-(dimethyl-amino)pyridin-3-yl]methyl}-3-[3-(ethylamino)-1H-pyrazolo[4,3-c]-pyridin-6-yl]urea], the IC50 was 32 nM.

For `CCNc1n[nH]c2cc(NC(=O)NC(C)c3ccc(F)c(F)c3)ncc12` (stereo not drawn) [Example 251, 1-[1-(3,4-difluoro-phenyl)ethyl]-3-[3-(ethylamino)-1H-pyrazolo[4,3-c]-pyridin-6-yl]urea], the IC50 is 3.2 nM.

For `CCNc1n[nH]c2cc(NC(=O)N[C@H](C)c3ccc(Cl)c(C)c3)ncc12` [Example 252, 1-[(1R)-1-(4-chloro-3-methyl-phenyl)ethyl]-3-[3-(ethylamino)-1H-pyrazolo[4,3-c]-pyridin-6-yl]urea], the IC50 came out at 2 nM. In the case of `CCNc1n[nH]c2cc(NC(=O)N[C@@H]3CN(C)C[C@H]3c3ccccc3)ncc12` [Example 253, 1-[3-(ethylamino)-1H-pyrazolo[4,3-c]pyridin-6-yl]-3-[(3S,4R)-1-methyl-4-phenylpyrrolidin-3-yl]urea], the half-inhibitory concentration (IC50) came to 1 nM. As for `CC(CNC(=O)Nc1cc2[nH]nc(N)c2cn1)c1ccccc1` (stereo not drawn) [Example 254, 1-(3-amino-1H-pyrazolo[4,3-c]pyridin-6-yl)-3-(2-phenyl-propyl)urea], the IC50 came out at 57.7 nM. In the case of `C[C@@H](NC(=O)Nc1cc2[nH]nc(N)c2cn1)C1CCCCC1` [Example 255, 1-(3-amino-1H-pyrazolo[4,3-c]pyridin-6-yl)-3-[(1R)-1-cyclohexyl-ethyl]urea] it was 18.1 nM; in that of `Nc1n[nH]c2cc(NC(=O)NC3CNc4ccccc4C3)ncc12` (stereo not drawn) [Example 256, 1-(3-amino-1H-pyrazolo[4,3-c]pyridin-6-yl)-3-(1,2,3,4-tetrahydro-quinolin-3-yl)urea], 37.5 nM.
